Experimental data published in patent US12702675B2, “Tetrahydrococannabinolic acid cocrystals” (Manoira Corporation, priority 2020, dated 2026).

Legend:
[1] = Solid-state stability study, ambient conditions in clear glass vial for 6 months; assay type: physicochemical
[2] = Solid-state stability study, accelerated conditions (40° C. and 75% relative humidity, 14 days); assay type: physicochemical; settings: 40° C./75% RH, 2 weeks, sealed container
Protocol: A study was carried out to examine the physical stability of the tetrahydrocannabinolic acid cocrystals with respect to solid form conversion or signs of decomposition over time under both ambient and accelerated conditions.

Substance: 1:1 tetrahydrocannabinolic acid ethyl maltol cocrystal [1:1 THCA ETHYL MALTOL]
- Appearance ([1]; 50 mg solid): No change
- XRPD analysis ([1]; form change by XRPD): No change
- Appearance ([2]; 50 mg solid): No change
- XRPD analysis ([2]; form change by XRPD): slight signs of dissociation
